Positions count from the first letter of the chain named. Non-standard residues stand in square brackets, D forms with d. Residues, ends and D or L forms follow the SMILES beside them. Nle = CCCC[C@H](N)C(=O)O; βAla = NCCC(=O)O
What was measured:
[1] = target: T1, Rat BRS-3/E3 (RB3-E3) (Rattus norvegicus, UniProt Q8K418, A302V/D306A/E299Q/E303D/P308H/S300T/V307M/V310I/V311F/Y298S); experiment: Calcium mobilization assay (FLIPR), chimeric receptor; assay type: cell-based, rat/human
T1 construct: expressed in transfected cells; host or cells: 293EBNA cells, pE3 expression vector
T1 sequence (Q8K418 1-399 Y298S/E299Q/S300T/A302V/E303D/D306A/V307M/P308H/V310I/V311F): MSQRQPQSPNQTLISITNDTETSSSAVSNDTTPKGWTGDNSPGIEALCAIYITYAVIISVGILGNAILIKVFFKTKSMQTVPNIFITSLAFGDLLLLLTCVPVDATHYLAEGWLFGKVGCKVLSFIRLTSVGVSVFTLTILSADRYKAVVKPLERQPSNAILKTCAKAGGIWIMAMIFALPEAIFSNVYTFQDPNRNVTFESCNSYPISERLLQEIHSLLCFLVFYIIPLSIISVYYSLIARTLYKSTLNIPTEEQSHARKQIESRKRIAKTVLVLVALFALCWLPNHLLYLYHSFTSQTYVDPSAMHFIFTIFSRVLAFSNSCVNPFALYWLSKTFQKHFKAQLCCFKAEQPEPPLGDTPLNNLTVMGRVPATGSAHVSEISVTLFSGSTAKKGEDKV
Source text: (§1) Chimeric rat/human BRS-3 genes and substitution mutant rat BRS-3 genes were constructed by using PCR mutagenesis techniques (Fong, T. in Structure-function analysis of G protein coupled receptors, J, Wess, ed, Wiley-Liss, pp. 1-20, (1999)). All the mutant and wild type BRS-3 genes were cloned into pE3 expression vector which contains CMV early promoter, hygromycin-resistance gene and OriP segment from Epstein-Bar virus.
(§2) The functional activity of rat BRS-3 was also studied by measuring the agonist-induced calcium mobilization response using a Fluorescence Imaging Plate Reader (Molecular Devices, Sunnyvale, Calif.). Transfected 293EBNA cells were plated onto poly-D-lysine coated 96-well plates with black wall and clear bottom (Becton Dickinson, Franklin Lakes, N.J.). After 16-48 hr culture, the cells were loaded with 4 uM Fluo-3-AM fluorescent calcium-indicator dye (Molecular Probes, Eugene, OR) in assay buffer (Hank's balanced salts solution, 10 mM HEPES, pH7.4, 0.1% bovine serum albumin, 2.5 mM probenecid).
(§3) The changes in intracellular calcium concentration, as indicated by Fluo-3 fluorescence, were immediately measured by FLIPR. Maximal changes in fluorescence over base line were used to determine agonist response. […]
(§4) The EC50 values were mean±S.E. calculated from dose-response curves of 3-5 repeated experiments using FLIPR assays.

[2] = target: T2, Rat BRS-3/E2 (RB3-E2) (Rattus norvegicus, UniProt Q8K418, E210K/I208V/N204T/Q192R/R196K/R211K/V198M); experiment: as above; assay type: cell-based, rat/human
T2 construct: expressed in transfected cells; host or cells: 293EBNA cells, pE3 expression vector
T2 sequence (Q8K418 1-399 Q192R/R196K/V198M/N204T/I208V/E210K/R211K): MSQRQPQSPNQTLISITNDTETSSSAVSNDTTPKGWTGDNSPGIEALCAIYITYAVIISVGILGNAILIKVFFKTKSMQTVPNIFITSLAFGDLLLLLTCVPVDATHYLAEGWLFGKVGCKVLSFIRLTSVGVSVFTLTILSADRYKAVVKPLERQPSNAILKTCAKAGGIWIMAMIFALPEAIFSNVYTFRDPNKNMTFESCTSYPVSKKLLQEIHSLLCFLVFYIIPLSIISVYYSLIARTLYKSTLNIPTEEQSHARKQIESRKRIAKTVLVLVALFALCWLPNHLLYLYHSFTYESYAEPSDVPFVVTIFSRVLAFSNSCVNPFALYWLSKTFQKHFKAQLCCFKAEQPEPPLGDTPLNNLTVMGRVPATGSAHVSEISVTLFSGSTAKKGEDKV
Source text: as §1, §2, §3, §4

[3] = target: T3, human BRS-3 (Homo sapiens, UniProt P32247); experiment: Calcium mobilization assay (FLIPR), transfected 293EBNA cells; assay type: cell-based
T3 construct: expressed in transfected cells; host or cells: 293EBNA cells, pE3 expression vector
T3 sequence (P32247 1-399): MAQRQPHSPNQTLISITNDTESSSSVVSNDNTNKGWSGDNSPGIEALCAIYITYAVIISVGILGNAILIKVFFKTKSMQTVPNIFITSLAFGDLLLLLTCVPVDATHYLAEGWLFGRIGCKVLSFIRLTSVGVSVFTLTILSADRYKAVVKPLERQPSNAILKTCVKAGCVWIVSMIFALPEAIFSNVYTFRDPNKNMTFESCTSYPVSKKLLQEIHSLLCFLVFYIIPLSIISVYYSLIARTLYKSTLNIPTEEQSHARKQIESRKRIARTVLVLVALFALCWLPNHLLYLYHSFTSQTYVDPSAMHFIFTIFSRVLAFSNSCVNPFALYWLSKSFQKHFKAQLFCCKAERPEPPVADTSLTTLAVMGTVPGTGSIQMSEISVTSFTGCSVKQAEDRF
Protocol: as §2
(§5) The changes in intracellular calcium concentration, as indicated by Fluo-3 fluorescence, were immediately measured by FLIPR. Maximal changes in fluorescence over base line were used to determine agonist response.
as §4

[4] = target: T4, Rat BRS-3/AMH (RB3-AMH) (Rattus norvegicus, UniProt Q8K418, D306A/P308H/V307M); experiment: Calcium mobilization assay (FLIPR), substitution mutant; assay type: cell-based
T4 construct: expressed in transfected cells; host or cells: 293EBNA cells, pE3 expression vector
T4 sequence (Q8K418 1-399 D306A/V307M/P308H): T1 sequence (Q8K418 1-399 Y298S/E299Q/S300T/A302V/E303D/D306A/V307M/P308H/V310I/V311F) with S298Y, Q299E, T300S, V302A, D303E, I310V, F311V
Source text: as §1, §2, §5, §4
To determine which amino acids in the E3 loop of human BRS-3 conferred dYB activity upon rat BRS-3, several substitution BRS-3 mutants were made in which the amino acids in the E3 loop of rat BRS-3 were substituted with residues that match human BRS-3.

[5] = system: human bombesin receptor subtypes, including human BRS-3; conditions: Pradhan et al. 1998; Ryan et al. 1998; cited from earlier work

## CCCC[C@H](NC(=O)[C@H](Cc1ccccc1)NC(=O)[C@H](Cc1cnc[nH]1)NC(=O)CCNC(=O)[C@@H](NC(=O)[C@H](C)NC(=O)[C@H](Cc1c[nH]c2ccccc12)NC(=O)[C@H](CCC(N)=O)NC(=O)[C@H](N)Cc1ccc(O)cc1)C(C)C)C(N)=O [dYB, [D-Tyr6-betaAla11-Phe13-Nle14] bombesin (6-14)] (H-[dY]QWAV[βAla]HF[Nle]-NH2)
[1]
  EC50: 2.8 ± 0.6 nM
[2]
  EC50: 990 ± 140 nM
[3]
  EC50: 1.2 ± 0.4 nM
[4]
  EC50: 370 ± 70 nM

## CCCC[C@H](NC(=O)[C@H](Cc1ccccc1)NC(=O)[C@H](Cc1c[nH]cn1)NC(=O)CCNC(=O)[C@@H](NC(=O)[C@H](C)NC(=O)[C@H](Cc1c[nH]c2ccccc12)NC(=O)[C@H](CCC(N)=O)NC(=O)[C@H](N)Cc1ccc(O)cc1)C(C)C)C(N)=O [dYB, [D-Tyr6-betaAla11-Phe13-Nle14] bombesin (6-14)] (H-[dY]QWAV[βAla]HF[Nle]-NH2)
[5]
  affinity and potency reported: nanomolar high affinity and high potency
[4]; RB3-AMH vs rat BRS-3
  improvement of dYB potency in calcium mobilization: 6 fold
